In PMC6587462 (Journal of Clinical Pharmacology, 2018):
“Also recorded” adds a separate entry of the source. Like-named read-outs stand apart in the source and are kept apart here. Values belong to the compound of their own block, whether it stands above or below them.

Key:
[1] = cited from earlier work
[2] = cited from earlier work; remark: listed apart in the source
clinical [3] = conditions: human, in vivo
plasma proteins = experiment: Binding to plasma proteins; assay type: in vitro ADME
[4] = Binding to plasma proteins; assay type: in vitro ADME; conditions: human, plasma
clinical [5] = conditions: human, in vivo, po
CYP450 isoforms = conditions: palonosetron; cited from earlier work
[6] = set-up: species or system human; conditions: estimated from t1/2
[7] = Study 11 population PK, patients (117), NEPA FDC, cited from earlier work
[8] = cited from earlier work; for AUCinf / CL/F / Cmax / Tmax / Vz/F / t1/2: Study 8, healthy volunteers (22), NEPA FDC, mean (CV%)
[9] = palonosetron; cited from earlier work
[10] = Study 9 replicate crossover bioequivalence study; assay type: in vivo, human
[11] = molecular target: P‐glycoprotein (P‐gp) efflux transporter (Homo sapiens, UniProt P08183); conditions: in vitro, cited from earlier work
[12] = cited from earlier work; remark: listed apart in the source
[13] = Study 4 pilot bioequivalence study, PK after single oral NEPA; assay type: in vivo; conditions: human, plasma
[14] = Absolute / oral bioavailability; assay type: in vivo; conditions: human, plasma, po
[15] = absorption, binding, metabolic, or excretory level; cited from earlier work
[16] = Study 5 bioequivalence study, PK after single oral NEPA; assay type: in vivo, human
[17] = Apical-to-basolateral permeability in MDCK II monolayer; assay type: in vitro ADME, canine; conditions: dog
NG108‐15 cells = conditions: netupitant and palonosetron combined; cited from earlier work
[18] = Biopharmaceutics Classification System class and solubility in water; assay type: physicochemical
NK1 receptor = NK1 receptor (Homo sapiens, UniProt P25103); conditions: NG108-15 cells; netupitant and palonosetron combined; cited from earlier work
[19] = Oral NEPA PK in cancer patients, summary across studies; assay type: in vivo; conditions: human, plasma
[20] = after both IV and oral administration; cited from earlier work
[21] = Study 12 PK/safety and DDI study in cancer patients; assay type: in vivo; conditions: human, plasma, oral
[22] = Study 11 population PK/pharmacodynamic study in cancer patients; assay type: in vivo, human; conditions: population PK modeling in patients
[23] = calculated logP; cited from earlier work
5‐HT3 receptor = molecular target: T1, 5‐HT3 receptor (Homo sapiens, UniProt P46098); conditions: Helsinn, data on file
T1 sequence (P46098 24-478): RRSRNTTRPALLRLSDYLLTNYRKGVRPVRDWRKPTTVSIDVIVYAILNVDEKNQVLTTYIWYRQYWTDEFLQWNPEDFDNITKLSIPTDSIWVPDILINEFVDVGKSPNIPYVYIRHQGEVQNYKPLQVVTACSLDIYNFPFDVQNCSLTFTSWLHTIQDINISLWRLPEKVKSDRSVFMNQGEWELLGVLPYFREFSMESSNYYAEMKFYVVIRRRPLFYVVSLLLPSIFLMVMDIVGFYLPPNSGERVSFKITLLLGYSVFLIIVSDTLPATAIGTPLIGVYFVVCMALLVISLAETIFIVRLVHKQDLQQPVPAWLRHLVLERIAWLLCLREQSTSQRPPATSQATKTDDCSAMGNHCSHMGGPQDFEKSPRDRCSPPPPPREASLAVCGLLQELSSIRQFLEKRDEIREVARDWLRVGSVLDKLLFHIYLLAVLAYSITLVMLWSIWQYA

Sequence of P‐glycoprotein (P‐gp) efflux transporter (P08183 whole entry): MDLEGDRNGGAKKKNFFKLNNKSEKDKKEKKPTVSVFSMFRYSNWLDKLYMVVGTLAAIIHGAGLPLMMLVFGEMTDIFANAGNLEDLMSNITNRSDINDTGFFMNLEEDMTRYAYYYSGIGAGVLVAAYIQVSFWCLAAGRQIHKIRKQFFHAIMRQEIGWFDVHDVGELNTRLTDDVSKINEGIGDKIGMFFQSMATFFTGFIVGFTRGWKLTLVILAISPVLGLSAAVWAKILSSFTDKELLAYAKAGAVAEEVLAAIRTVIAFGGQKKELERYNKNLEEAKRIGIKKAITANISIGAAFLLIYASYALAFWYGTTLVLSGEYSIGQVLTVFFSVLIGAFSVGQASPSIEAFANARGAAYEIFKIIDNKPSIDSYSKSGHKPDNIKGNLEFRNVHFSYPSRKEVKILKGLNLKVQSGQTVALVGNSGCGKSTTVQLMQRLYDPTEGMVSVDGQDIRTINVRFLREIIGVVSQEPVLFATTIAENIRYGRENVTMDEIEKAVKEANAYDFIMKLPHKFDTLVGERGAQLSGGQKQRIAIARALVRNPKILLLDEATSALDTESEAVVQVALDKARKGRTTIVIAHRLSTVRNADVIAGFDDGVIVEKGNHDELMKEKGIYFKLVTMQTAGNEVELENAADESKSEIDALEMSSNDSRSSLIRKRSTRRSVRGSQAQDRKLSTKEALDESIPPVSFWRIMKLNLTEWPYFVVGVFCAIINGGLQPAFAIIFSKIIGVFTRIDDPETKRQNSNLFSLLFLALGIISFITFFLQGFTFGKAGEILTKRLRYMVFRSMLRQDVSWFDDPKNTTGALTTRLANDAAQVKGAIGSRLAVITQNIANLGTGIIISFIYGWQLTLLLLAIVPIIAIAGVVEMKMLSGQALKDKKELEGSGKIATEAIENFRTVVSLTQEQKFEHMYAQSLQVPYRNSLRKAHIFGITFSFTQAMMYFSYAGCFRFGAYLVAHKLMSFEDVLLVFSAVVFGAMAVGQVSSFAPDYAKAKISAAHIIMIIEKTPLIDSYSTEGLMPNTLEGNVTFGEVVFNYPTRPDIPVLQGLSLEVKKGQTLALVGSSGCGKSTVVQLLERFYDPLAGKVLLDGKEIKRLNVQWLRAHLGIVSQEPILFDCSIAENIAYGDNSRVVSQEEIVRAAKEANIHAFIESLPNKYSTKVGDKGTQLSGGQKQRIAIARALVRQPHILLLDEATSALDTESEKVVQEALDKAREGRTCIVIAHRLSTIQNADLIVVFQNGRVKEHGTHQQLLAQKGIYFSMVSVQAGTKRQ
Sequence of NK1 receptor (P25103 whole entry, species assumed): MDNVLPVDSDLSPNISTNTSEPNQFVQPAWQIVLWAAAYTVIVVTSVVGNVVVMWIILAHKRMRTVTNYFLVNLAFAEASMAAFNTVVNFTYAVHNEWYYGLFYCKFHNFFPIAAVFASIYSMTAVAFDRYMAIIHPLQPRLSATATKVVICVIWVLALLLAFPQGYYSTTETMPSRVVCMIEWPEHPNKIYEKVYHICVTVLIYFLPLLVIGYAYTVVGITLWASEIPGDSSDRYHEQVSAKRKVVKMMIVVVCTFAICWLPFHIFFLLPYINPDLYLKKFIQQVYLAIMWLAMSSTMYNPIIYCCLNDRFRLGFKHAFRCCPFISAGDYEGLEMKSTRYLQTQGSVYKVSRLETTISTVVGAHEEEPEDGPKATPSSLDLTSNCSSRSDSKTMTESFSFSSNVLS

SMILES: C[C@@H](OC[C@@]1(c2ccccc2)CC[C@]2(CCC(=O)N2)CN1)c1cc(C(F)(F)F)cc(C(F)(F)F)c1 [rolapitant]
t1/2 [1]: approximately 180 hours
adverse reactions on intravenous administration [2]: injection‐site reactions

SMILES: C[C@@H](O[C@H]1OCCN(Cc2nc(O)n(P(=O)(O)O)n2)[C@H]1c1ccc(F)cc1)c1cc(C(F)(F)F)cc(C(F)(F)F)c1 [fosaprepitant]
adverse reactions on intravenous administration [2]: injection‐site reactions

CL renal (clinical [3]): 89.8 mL/min
CL/F (Healthy volunteers, Min-Max of study means, single oral NEPA): 9.6 to 17.9 L/h
plasma concentration as fraction of mean Cmax (at 3 hours after oral NEPA): approximately 80%
binding to plasma proteins (plasma proteins): 62%
fraction unbound [4]: 0.38
AUC(0-inf) (clinical [5]): 33.2 to 56.7 ng·h/mL
Cmax (clinical [5]): 0.768 to 1.53 ng/mL
Tmax (clinical [5]): 3.76 to 4.96 h
Vd/F (clinical [5]): 575 to 962 L
half-life (clinical [5]): 36.9 to 48.3 h
fraction from previous NEPA administration eliminated at next dose ([6]; chemotherapy every 2 weeks): more than 99%
fraction from previous NEPA administration eliminated at next dose ([6]; chemotherapy every 3 weeks): 100%
CL/F ([10]; Study 9, healthy volunteers (82), NEPA FDC commercial product, mean (CV%)): 11.1 (27.6) L/h
AUC(0-inf) ([10]; human, plasma, oral): 48.2 ng·h/mL
Cmax ([10]; human, plasma, oral): 1.27 ng/mL
Tmax ([10]; human, plasma, oral): 3.76 h
Vd/F ([10]; human, plasma, oral): 575 L
half-life ([10]; human, plasma, oral): 37.2 h
Tmax [13]: 4.19 h
Vd/F [13]: 658 L
half-life [13]: 42.1 h
bioavailability [14]: ~100%
CL/F ([16]; Study 5, healthy volunteers (47), single oral NEPA FDC, mean (CV%)): 9.6 (28.3) L/h
AUC(0-inf) ([16]; human, plasma, po): 56.7 ng·h/mL
Cmax ([16]; human, plasma, po): 1.53 ng/mL
Tmax ([16]; human, plasma, po): 4.68 h
Vd/F ([16]; human, plasma, po): 586 L
half-life ([16]; human, plasma, po): 44.2 h
Papp A→B at 0.5 μM [17]: 16 ×10⁻⁶ cm/s
Papp A→B at 50 μM [17]: 65 ×10⁻⁶ cm/s
Biopharmaceutics Classification System class [18]: 1
AUC(0-inf) [19]: 48.1 to 85.6 ng·h/mL
Cmax [19]: 0.85 to 1.38 ng/mL
Tmax [19]: 3.01 to 5.33 h
Vd/F [19]: 483 to 679 L
absorption lag time [22]: 0.79 h
absorption rate constant [22]: 2.66 h⁻¹
SMILES: O=C1c2cccc3c2[C@H](CCC3)CN1[C@@H]1CN2CCC1CC2 [palonosetron]
CYP isoforms mediating metabolism (CYP450 isoforms): primarily metabolized by CYP2D6 and to a lesser extent by CYP3A4 and CYP1A2
AUCinf ([7]; mean (CV%)): 68.611 (33.4) ng ⋅ h/mL
Cmax ([7]; mean (CV%)): 1.378 (28.3) ng/mL
Tmax ([7]; mean (CV%)): 3.01 (66.4) h
CL/F ([7]; value (%RSE)): 7.6 (%RSE = 3.64) L/h
AUCinf ([8]; fasted): 33.645 (26.7) ng ⋅ h/mL
CL/F ([8]; fasted): 17.9 (34.1) L/h
Cmax ([8]; fasted): 0.786 (28.4) ng/mL
Tmax ([8]; fasted): 4.34 (19.6) h
Vz/F ([8]; fasted): 905 (20.7) L
t1/2 ([8]; fasted): 36.9 (23.6) h
AUCinf ([8]; fed): 33.199 (20.9) ng ⋅ h/mL
CL/F ([8]; fed): 17.8 (28.0) L/h
Cmax ([8]; fed): 0.768 (20.7) ng/mL
Tmax ([8]; fed): 4.96 (24.3) h
Vz/F ([8]; fed): 962 (24.5) L
t1/2 ([8]; fed): 38.9 (29.1) h
AUCinf and Cmax under fed (high-fat breakfast) vs fasting conditions ([8]; open, randomized, 2-way crossover study in healthy volunteers): similar
solubility in water [9]: freely soluble
substrate of P-gp (MDR1/P-gp) efflux transporter [11]: P‐gp substrate
inhibitor of P-gp efflux transporter ([11]; parent drugs): not an inhibitor; also recorded: not a P‐gp inhibitor
effect of coadministration of metoclopramide or aprepitant on pharmacokinetics [12]: did not alter
PK interaction between netupitant and palonosetron [15]: no relevant PK interactions
combined effect on inhibition of substance P-mediated response (NG108‐15 cells): synergistic effects
combined effect on triggering NK1 receptor internalization (NK1 receptor): additive effects
t1/2 ([1]; cancer patients, intravenous single dose): 49.8 h
t1/2 ([1]; healthy subjects, intravenous single dose): 37.4 h
fraction of administered palonosetron dose found in urine [20]: approximately 40%
Vd/F [21]: 633 to 679 L
octanol-water partition coefficient (logP) [23]: 2.72

SMILES: O=C1c2cccc3c2[C@H](CCC3)CN1[C@@H]1C[N+]2([O-])CCC1CC2 [M9, N‐oxide‐palonosetron]
5-HT3 receptor antagonist activity relative to palonosetron (5‐HT3 receptor): < 1%
fraction of administered palonosetron dose found in urine [20]: approximately 13%

SMILES: O=C1c2cccc3c2[C@H](CC[C@@H]3O)CN1[C@@H]1CN2CCC1CC2 [6‐S‐hydroxy‐palonosetron]
5-HT3 receptor antagonist activity relative to palonosetron (5‐HT3 receptor): < 1%
